Legend:
[1] = test system: IL-6; assay: IL-6 production in LPS-stimulated human whole blood (ELISA); type: cell-based; details: LPS 4 hours, read-out: % IL-6 Inhibitory Activity (hPBMC)
Experimental: This assay determines the effect of test compounds on the production of IL-6 from human whole blood. Compounds are tested for their ability to downregulate the production of IL-6 in activated whole blood. The test compounds are pre-incubated for 15 minutes at 37° C. and then stimulated with Lipopolysaccharide (Salmonella abortus equi, 1 µg/ml) for 4 hours at 37° C. in 5% CO2. The levels of IL-6 are estimated using Enzyme linked Immunosorbent assay performed in a 96 well format as per the procedure of the manufacturer. (Cayman Chemical, Ann Arbor, USA).

[2] = test system: TNF-α; assay: TNF-α production in LPS-stimulated human whole blood (ELISA); type: cell-based; details: LPS 4 hours, read-out: % TNF-α Inhibitory Activity in (hPBMC)
Experimental: This assay determines the effect of the test compounds on the production of TNF-α in human whole blood. TNF-α assay is carried out as described by Armin Hatzelmann and Christian Schudt (J Pharm Exp Ther 297, 261, 2001). Compounds are tested for their ability to inhibit the activity of TNF-α in human whole blood. The test compounds are pre-incubated for 15 minutes at 37° C. and then stimulated with Lipopolysaccharide (Salmonella abortus equi, 1 µg/ml) for 4 hours at 37° C. in 5% CO2. The levels of TNF-α are estimated using Enzyme linked Immunosorbent assay performed in a 96 well format as per the procedure of the manufacturer (Cayman Chemical, Ann Arbor, USA).

[3] = molecular target: T1, COX-2 (Homo sapiens, UniProt P35354); assay: COX-2 enzyme based assay (purified recombinant enzyme, prostaglandin EIA); type: biochemical
T1 sequence (P35354 18-604): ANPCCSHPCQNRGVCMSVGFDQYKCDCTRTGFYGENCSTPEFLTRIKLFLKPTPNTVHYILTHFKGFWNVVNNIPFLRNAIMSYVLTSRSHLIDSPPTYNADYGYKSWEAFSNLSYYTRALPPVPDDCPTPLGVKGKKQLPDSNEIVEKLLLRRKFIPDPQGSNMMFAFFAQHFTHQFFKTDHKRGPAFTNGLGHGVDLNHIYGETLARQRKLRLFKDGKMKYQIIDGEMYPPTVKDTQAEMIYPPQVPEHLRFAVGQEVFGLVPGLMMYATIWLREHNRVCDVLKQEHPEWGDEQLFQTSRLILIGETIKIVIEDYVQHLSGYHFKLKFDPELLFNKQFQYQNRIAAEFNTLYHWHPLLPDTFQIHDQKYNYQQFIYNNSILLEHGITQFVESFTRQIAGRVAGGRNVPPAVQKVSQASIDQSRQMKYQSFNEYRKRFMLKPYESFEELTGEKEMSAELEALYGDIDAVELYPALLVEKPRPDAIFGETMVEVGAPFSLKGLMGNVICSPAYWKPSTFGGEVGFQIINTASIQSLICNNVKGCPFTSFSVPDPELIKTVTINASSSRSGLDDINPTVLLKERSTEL
Experimental: (§1) COX-1 and COX-2 enzyme based assays were carried out to check the inhibitory potential of test compounds on the production of prostaglandin by purified recombinant COX-1/COX-2 enzyme (Proc. Nat. Acad. Sci. USA, 88, 2692-2696, 1991; J. Clin. Immunoassay 15, 116-120, 1992) In this assay, the potential of the test compound to inhibit the production of prostaglandin's either by COX-1 or COX-2 from arachidonic acid (substrate) was measured. This was an enzyme based in-vitro assay to evaluate selective COX inhibition with good reproducibility.
(§2) Arachidonic acid was converted to PGH2 (Intermediate product) by COX1/COX-2 in the presence or absence of the test compound. The reaction was carried out at 37° C. and after 2 minutes it was stopped by adding 1M HCl. The intermediate product PGH2 was converted to a stable prostanoid product PGF2α by SnCl2 reduction. The amount of PGF2α produced in the reaction was inversely proportional to the COX inhibitory potential of the test compound. The prostanoid product was quantified via enzyme immunoassay (EIA) using a broadly specific antibody that binds to all the major forms of prostaglandin, using Cayman ELISA kit as per the procedure outlined by the manufacturer (Cayman Chemicals, Ann Arbor, USA).

[4] = test system: serum TNF-α production; assay: In-vivo TNF-α inhibition assay (LPS-induced serum TNF-α in mice); details: male Swiss albino mice, oral, serum 90 minutes after LPS challenge
Experimental: TNF-α inhibitory activity is assessed by in-vivo inhibition of serum TNF-α production in mice. This method is used to assess the inhibitory actions of compounds, on TNF-[…] production in mouse (Griswold et al J Pharmacol Exp Ther 287,705, 1998, Garcia et al, Histol Histopathol 5(1), 43, 1990, and Victor et al, Physiol Res 52,789, 2003). Male Swiss albino mice with body weights equivalent within each group are selected. The animals are fasted for eighteen hours with free access to water. The control group receives only LPS and the drug treatment group receives LPS and the test compound. At the start of the experiment, the drug is administered orally. Thirty minutes later, the animals are given intraperitoneal injection with lipo-polysaccharide (LPS). Blood samples are withdrawn 90 minutes after the LPS challenge, which is the time point of maximal elevation of serum TNF-α activity. Blood was centrifuged for 10 minutes at 4° C. Serum samples were assayed for TNF-[…] levels using Mouse ELISA kit. The Percent Inhibition of TNF-α production is determined by comparison with LPS-treated and LPS/drug treated groups.

[5] = molecular target: COX-1 (Homo sapiens, UniProt P23219); assay: COX-1 enzyme based assay (purified recombinant enzyme, prostaglandin EIA); type: biochemical
COX-1, sequence (P23219 24-599): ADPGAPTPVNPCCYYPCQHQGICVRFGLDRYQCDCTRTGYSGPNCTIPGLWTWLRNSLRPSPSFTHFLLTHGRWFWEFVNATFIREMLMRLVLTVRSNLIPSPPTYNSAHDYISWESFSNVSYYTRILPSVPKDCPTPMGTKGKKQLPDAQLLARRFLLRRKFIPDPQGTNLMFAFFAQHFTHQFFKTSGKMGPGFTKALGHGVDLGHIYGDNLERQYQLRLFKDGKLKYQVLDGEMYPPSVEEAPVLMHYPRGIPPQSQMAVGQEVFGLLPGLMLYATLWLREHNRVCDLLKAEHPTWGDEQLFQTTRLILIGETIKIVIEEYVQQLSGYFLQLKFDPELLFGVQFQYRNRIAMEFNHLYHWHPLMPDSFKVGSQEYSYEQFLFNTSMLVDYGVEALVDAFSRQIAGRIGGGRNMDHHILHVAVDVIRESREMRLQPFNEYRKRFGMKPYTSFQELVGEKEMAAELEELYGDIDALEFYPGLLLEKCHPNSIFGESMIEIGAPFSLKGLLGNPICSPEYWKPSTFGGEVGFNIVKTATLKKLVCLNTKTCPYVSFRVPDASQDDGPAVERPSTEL
Experimental: as §1, §2

| Structure (SMILES) | inhibition at 1 µM [1] | inhibition at 10 µM [1] | melting point | inhibition at 1 µM [2] | inhibition at 10 µM [2] | inhibition at 1 µM [3] | inhibition at 10 µM [3] | % TNF-α inhibition in in vivo sepsis in mice [4] | inhibition at 10 µM [5] |
| --- | --- | --- | --- | --- | --- | --- | --- | --- | --- |
| Cc1nccn1CC1CCc2c(c3ccccc3n2C)/C1=N/OC(=O)c1cccc(C#N)c1 (stereo not shown) [Example 65, (4E)-9-methyl-3-[(2-methyl-1H-imidazol-1-yl)methyl]-1,2,3,9-tetrahydro-4H-carbazol-4-one O-3-cyanobenzoyloxime] | 13.7% | 30.6% | 160 to 166 °C |  |  |  |  |  |  |
| CCO/N=C1/c2c(n(C)c3ccccc23)CCC1Cn1ccnc1C (stereo not shown) [Example 3, (4E)-9-methyl-3-[(2-methyl-1H-imidazol-1-yl)methyl]-1,2,3,9-tetrahydro-4H-carbazol-4-one O-ethyloxime] | 13.1% | 17.7% |  | 3.42% | 26.9% |  |  |  |  |
| Cc1nccn1CC1CCc2c(c3ccccc3n2C)/C1=N/OC(=O)c1cccc(Cl)n1 (stereo not shown) [Example 40, (4E)-9-methyl-3-[(2-methyl-1H-imidazol-1-yl)methyl]-1,2,3,9-tetrahydro-4H-carbazol-4-one O-6-chloropyridinoyloxime] | 20.5% | 21.3% | 170 to 175 °C |  |  |  |  |  |  |
| Cc1nccn1CC1CCc2c(c3ccccc3n2C)/C1=N/OC(=O)C1CCCCC1 (stereo not shown) [Example 42, (4E)-9-methyl-3-[(2-methyl-1H-imidazol-1-yl)methyl]-1,2,3,9-tetrahydro-4H-carbazol-4-one O-cyclohexanoyloxime] | 7.96% | 18.5% | 98 to 106 °C |  |  |  |  |  |  |
| Cc1nccn1CC1CCc2c(c3ccccc3n2C)/C1=N/Oc1ccc(C(F)(F)F)cn1 (stereo not shown) [Example 21, (4E)-9-methyl-3-[(2-methyl-1H-imidazol-1-yl)methyl]-1,2,3,9-tetrahydro-4H-carbazol-4-one O-[5-trifluoromethyl-pyridin-2-yl]oxime] |  |  |  |  |  | 23% | 23.6% |  |  |
| CC(=O)O/N=C1/c2c(n(C)c3ccccc23)CCC1Cn1ccnc1C (stereo not shown) [Example 25, (4E)-9-methyl-3-[(2-methyl-1H-imidazol-1-yl)methyl]-1,2,3,9-tetrahydro-4H-carbazol-4-one O-acetyloxime] | 22.4% | 12.5% |  |  |  |  |  |  |  |
| Cc1nccn1CC1CCc2c(c3ccccc3n2C)/C1=N/OCc1ccccc1 (stereo not shown) [Example 2, (4E)-9-methyl-3-[(2-methyl-1H-imidazol-1-yl)methyl]-1,2,3,9-tetrahydro-4H-carbazol-4-one O-benzyloxime] | 17.2% | 52.7% |  | 6.87% | 54.3% |  |  |  |  |
| Cc1nccn1CC1CCc2c(c3ccccc3n2C)/C1=N/Oc1ccc(Br)cn1 (stereo not shown) [Example 17, (4E)-9-methyl-3-[(2-methyl-1H-imidazol-1-yl)methyl]-1,2,3,9-tetrahydro-4H-carbazol-4-one O-[5-bromo-pyridin-2-yl]oxime] |  |  |  |  |  | 41.5% | 42.7% | 82.69% |  |
| CCc1ccc(C(=O)O/N=C2/c3c(n(C)c4ccccc34)CCC2Cn2ccnc2C)cc1 (stereo not shown) [Example 41, (4E)-9-methyl-3-[(2-methyl-1H-imidazol-1-yl)methyl]-1,2,3,9-tetrahydro-4H-carbazol-4-one O-4-ethylbenzoyloxime] | 7.63% | 3.09% | 175 to 178 °C |  |  |  |  |  |  |
| Cc1nccn1CC1CCc2c(c3ccccc3n2C)/C1=N/OC(=O)c1ccccc1Br (stereo not shown) [Example 39, (4E)-9-methyl-3-[(2-methyl-1H-imidazol-1-yl)methyl]-1,2,3,9-tetrahydro-4H-carbazol-4-one O-2-bromobenzoyloxime] | 28.5% | 19.1% | 108 to 112 °C | 26.1% | 45.8% |  |  |  |  |
| COc1cc(O/N=C2/c3c(n(C)c4ccccc34)CCC2Cn2ccnc2C)nc(OC)n1 (stereo not shown) [Example 20, (4E)-9-methyl-3-[(2-methyl-1H-imidazol-1-yl)methyl]-1,2,3,9-tetrahydro-4H-carbazol-4-one O-(2,6-dimethoxypyrimidin-4-yl)oxime] |  |  |  |  |  | 32.7% | 34.9% |  | 39.1% |
| Cc1nccn1CC1CCc2c(c3ccccc3n2C)/C1=N/OC(=O)c1ccc(F)cc1 (stereo not shown) [Example 38, (4E)-9-methyl-3-[(2-methyl-1H-imidazol-1-yl)methyl]-1,2,3,9-tetrahydro-4H-carbazol-4-one O-4-fluorobenzoyloxime] | 19.1% | 26% | 192 to 200 °C |  |  |  |  |  |  |
| Cc1nccn1CC1CCc2c(c3ccccc3n2C)/C1=N/OC(=O)c1ccccc1Cl (stereo not shown) [Example 37, (4E)-9-methyl-3-[(2-methyl-1H-imidazol-1-yl)methyl]-1,2,3,9-tetrahydro-4H-carbazol-4-one O-2-chlorobenzoyloxime] | 21.1% | 32.2% | 111 to 116 °C | 14.5% | 42.1% |  |  |  |  |
| Cc1nccn1CC1CCc2c(c3ccccc3n2C)/C1=N/OC(=O)c1ccc(C#N)cc1 (stereo not shown) [Example 44, (4E)-9-methyl-3-[(2-methyl-1H-imidazol-1-yl)methyl]-1,2,3,9-tetrahydro-4H-carbazol-4-one O-4-cyanobenzoyloxime] | 13.2% | 22.7% | 178 to 180 °C | 23.5% | 45.6% |  |  |  |  |
| Cc1nccn1CC1CCc2c(c3ccccc3n2C)/C1=N/OC(=O)C(F)(F)F (stereo not shown) [Example 26, (4E)-9-methyl-3-[(2-methyl-1H-imidazol-1-yl)methyl]-1,2,3,9-tetrahydro-4H-carbazol-4-one O-trifluoroacetyloxime] |  |  | 148 to 150 °C | 20.8% | 2.67% |  |  |  |  |
| Cc1nccn1CC1CCc2c(c3ccccc3n2C)/C1=N/OC(=O)c1ccc(Br)s1 (stereo not shown) [Example 62, (4E)-9-methyl-3-[(2-methyl-1H-imidazol-1-yl)methyl]-1,2,3,9-tetrahydro-4H-carbazol-4-one O-[(5-bromothien-2-yl)carbonyl]oxime] |  |  |  |  |  | 42% | 36.5% | 86.10% | 16.4% |
